In patent US8686113B2 (priority 2009, dated 2014):
≈ marks a conversion by molar mass, not a printed value. Like-named read-outs stand apart in the source and are kept apart here. Non-standard residues stand in square brackets, D forms with d. Residues, ends and D or L forms follow the SMILES beside them. No end group written: not given here. *: point of attachment. Hyp = O=C(O)[C@@H]1C[C@@H](O)CN1; Tle = CC(C)(C)[C@H](N)C(=O)O; Orn = NCCC[C@H](N)C(=O)O; NHPr = CCCN*

Experiments:
[1] = Stability against bacterial proteases in E. coli lysate; assay type: in vitro ADME; conditions: E. coli lysate with 0.5 mg/mL protein concentration, 37° C.
Experimental: For the bacterial lysate, 500 mL of nutrient broth (Carl Roth GmbH+Co. KG, Karlsruhe) was inoculated with E. coli BL21 A1 and incubated overnight at 37° C. 2×250 mL bacterial suspension were centrifuged for 25 min at 5000 rpm and 4° C. in a Beckman Avanti™ J-20-XP centrifuge with JLA-10.500 rotor (Beckman Coulter, Fullerton, U.S.A.). The pellets were each suspended in 30 mL PBS (pH 7.4) and centrifuged again in a Beckman Allegra™ 2IR centrifuge (Beckman Coulter, Fullerton, U.S.A.). The pellets were each suspended in 10 mL PBS and were disrupted with ultrasound (Vibra-cell™ microtip, Fisher Bioblock Scientific, Illkirch, France) 2×5 min (750 W; amplitude 40%; 2 s on/3 s off) on ice. The bacterial lysates were combined and 1 mL aliquots were centrifuged at 15400 rpm for 20 min at 4° C. (Beckman Allegra™). The supernatants were removed and stored at −20° C. The protein content of the bacterial lysate was determined by protein determination according to Bradford.
A solution of 0.15 μg/mL peptide in bacterial lysate with protein content of 1.5 mg/mL or 0.5 mg/mL was incubated at 37° C. After 0, 30, 60, 120, 240 or 360 min, 200 μL was taken from each and the proteins were precipitated with 50 μL of 15% trichloroacetic acid. Then it was incubated for 10 min at 4° C. and then centrifuged for 5 min at 13000 rpm in a Minispin desktop centrifuge. 210 μL was taken from the supernatant and neutralized with 1 mol/L sodium hydroxide solution. The intact peptide and the degradation products were analyzed by HPLC. 60 μL of 3% aqueous acetonitrile with 0.1% trifluoroacetic acid (TFA) was added to the solution and 250 μL of the mixture was injected. After chromatographic separation, the constituents were identified by MALDI-TOF-MS,
In order to investigate the stability against bacterial proteases, a lysate was prepared from an overnight culture of E. coli BL21 A1 and the peptides were incubated in it. Using Bradford protein determination, the protein concentration was adjusted to 0.5 or 1.5 mg/mL.

[2] = mouse, serum
Experimental: (§2) For this, the peptides and peptidomimetics were dissolved in water, mouse serum was added and the peptide concentration was adjusted to 75 μg/mL. While shaking continuously, the mixture was incubated at 37° C. After 0, 30, 60, 120, 240 and 360 minutes, in each case an aliquot was taken and mixed with 15% aqueous trichloroacetic acid (Carl Roth GmbH & Co. KG; Karlsruhe, Germany). After incubation on ice for a further 10 minutes, the precipitated serum proteins were centrifuged off (5 min, 13400 rpm, MiniSpin, Eppendorf AG, Hamburg, Germany). The supernatant was removed, neutralized with 1 mol/L aqueous sodium hydroxide solution (Fluke Chemie GmbH, Buchs, Switzerland) and stored at −20° C. until analysis.
(§3) The supernatants were analyzed by RP-HPLC with a linear acetonitrile gradient (Biosolve BV, Valkenswaard, The Netherlands) in the presence of 0.1% trifluoroacetic acid (TFA, UV-grade, Fluka Chemie GmbH, Buchs, Switzerland) as ion-pairing reagent. The fractions were co-crystallized with α-cyanohydroxycinnamic acid (Bruker Daltonik GmbH; Bremen, Germany) as matrix (5.3 mg/mL in 50% acetonitrile in 0.1% aqueous TFA) and were analyzed with a tandem mass spectrometer (MALDI-TOF/TOF-MS, 4700 Proteomics Analyzer; Applied Biosystems GmbH, Weiterstadt, Germany) in the positive-ion reflector mode. The proportion of intact peptides and their degradation products or metabolites could thus be identified and quantified at the individual time points. The control used was 25% aqueous mouse serum, which was analyzed in parallel for the same time intervals.

[3] = tested on: E. coli BL21 A1; assay type: cell-based, Escherichia coli
Summary of the method: (§1)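 Broth microdilution in 1% TSB with twofold peptide series, final 128 μg/mL to 62.5 ng/mL, against 5×10^6 bacteria/mL stock suspension added 1:1. Incubated 20 h at 37 °C, growth read by absorbance at 595 nm; MIC is the lowest concentration with no growth, determined in triplicate.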

[4] = tested on: M. luteus 10240; test: Growth inhibition assay (microdilution MIC); assay type: cell-based, Micrococcus luteus; conditions: 10240, 20 h
Summary of the method: as §1

[5] = 25% aqueous mouse serum, 37° C., 75 μg/mL peptide
Experimental: as §2, §3

[6] = mouse, serum; remark: listed apart in the source
Experimental: as §2, §3
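Throughout, for Half-life in 25% mouse serum: intact peptide left at successive time points measured by reversed-phase HPLC with an acetonitrile gradient in the supernatant after precipitation of serum proteins.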

With CC[C@H](C)[C@H](NC(=O)[C@H](CCCN)NC(=O)[C@H](CCCNC(=N)N)NC(=O)[C@@H]1CCCN1C(=O)[C@@H]1CCCN1C(=O)[C@H](CCCNC(=N)N)NC(=O)[C@@H]1CCCN1C(=O)[C@H](CCCNC(=N)N)NC(=O)[C@@H]1CCCN1C(=O)[C@H](CC(C)C)NC(=O)[C@H](Cc1ccc(O)cc1)NC(=O)[C@@H]1CCCN1C(=O)[C@@H]1CCCN1C(=O)[C@H](CCCCN)NC(=O)[C@H](CC(=O)O)NC(=O)[C@@H](N)C(C)C)C(=O)N[C@@H](Cc1ccc(O)cc1)C(=O)N[C@@H](CC(N)=O)C(=O)N[C@@H](CCCN)C(N)=O [SEQ ID NO. 72, VDKPPYLPRPRPPROIYNO-NH2] (H-VDKPPYLPRPRPPR[Orn]IYN[Orn]-NH2) the half-life [1] was 1.92 h, the half-life ([2]; Half-life in 25% mouse serum, 25% aqueous mouse serum, 37° C., 75 μg/mL peptide) was > 6 h and the half-life ([2]; half-life in 25% aqueous mouse serum, 25% serum) was > 6 h. The MIC values against E. coli [3] was 8 µg/mL (≈ 3.47 µM) and the “MIC E. coli BL21 A1” value ([3]; BL21, 20 h) was 8 µg/mL (≈ 3.47 µM).
CC[C@H](C)[C@H](NC(=O)[C@H](CCCN)NC(=O)[C@H](CCCNC(=N)N)NC(=O)[C@@H]1C[C@@H](O)CN1C(=O)[C@@H]1CCCN1C(=O)[C@H](CCCNC(=N)N)NC(=O)[C@@H]1CCCN1C(=O)[C@H](CCCNC(=N)N)NC(=O)[C@@H]1CCCN1C(=O)[C@H](CC(C)C)NC(=O)[C@H](Cc1ccc(O)cc1)NC(=O)[C@@H]1CCCN1C(=O)[C@@H]1CCCN1C(=O)[C@H](CCCCN)NC(=O)[C@H](CC(=O)O)NC(=O)[C@@H](N)C(C)C)C(=O)N[C@@H](Cc1ccc(O)cc1)C(=O)N[C@@H](CC(N)=O)C(=O)N[C@@H](CCCN)C(N)=O [SEQ ID NO. 107] (H-VDKPPYLPRPRP[Hyp]R[Orn]IYN[Orn]-NH2) showed a half-life [1] of 3.58 h.
In the case of CC(C)C[C@H](NC(=O)[C@H](Cc1ccc(O)cc1)NC(=O)[C@@H]1CCCN1C(=O)[C@@H]1CCCN1C(=O)[C@H](CCCCN)NC(=O)[C@H](CC(=O)O)NC(=O)[C@@H](N)C(C)C)C(=O)N1CCC[C@H]1C(=O)N[C@@H](CCCNC(=N)N)C(=O)N1CCC[C@H]1C(=O)N[C@@H](CCCNC(=N)N)C(=O)N1CCC[C@H]1C(=O)N1CCC[C@H]1C(=O)N[C@@H](CCCNC(=N)N)C(=O)N[C@@H](CCCN)C(=O)N[C@H](C(=O)N[C@@H](Cc1ccc(O)cc1)C(=O)N[C@@H](CC(N)=O)C(=O)N[C@@H](CCCN)C(N)=O)C(C)(C)C [SEQ ID NO. 109, VDKPPYLPRPRPPRO-Tle-YNO-NH2] (H-VDKPPYLPRPRPPR[Orn][Tle]YN[Orn]-NH2), the half-life [1] is reported as > 4 h.
With CC(C)C[C@H](NC(=O)[C@H](Cc1ccc(O)cc1)NC(=O)[C@@H]1CCCN1C(=O)[C@@H]1CCCN1C(=O)[C@H](CCCCN)NC(=O)[C@H](CC(=O)O)NC(=O)[C@@H](N)C(C)C)C(=O)N1CCC[C@H]1C(=O)N[C@@H](CCCNC(=N)N)C(=O)N1CCC[C@H]1C(=O)N[C@@H](CCCNC(=N)N)C(=O)N1CCC[C@H]1C(=O)N1C[C@H](O)C[C@H]1C(=O)N[C@@H](CCCNC(=N)N)C(=O)N1C[C@H](O)C[C@H]1C(=O)N[C@H](C(=O)N[C@@H](Cc1ccc(O)cc1)C(=O)N[C@@H](CC(N)=O)C(=O)N[C@@H](CCCN)C(N)=O)C(C)(C)C [SEQ ID NO. 110] (H-VDKPPYLPRPRP[Hyp]R[Hyp][Tle]YN[Orn]-NH2) the half-life [1] was > 4 h and the “MIC E. coli BL21 A1” value ([3]; 1% TSB, 20 h at 37° C.) was 2 µg/mL (≈ 0.862 µM).
For CC[C@H](C)[C@H](NC(=O)[C@H](CCCNC(=N)N)NC(=O)[C@H](CCCNC(=N)N)NC(=O)[C@@H]1CCCN1C(=O)[C@@H]1CCCN1C(=O)[C@H](CCCNC(=N)N)NC(=O)[C@@H]1CCCN1C(=O)[C@H](CCCNC(=N)N)NC(=O)[C@@H]1CCCN1C(=O)[C@H](CC(C)C)NC(=O)[C@H](Cc1ccc(O)cc1)NC(=O)[C@@H]1CCCN1C(=O)[C@@H]1CCCN1C(=O)[C@H](CCCCN)NC(=O)[C@H](CC(=O)O)NC(=O)[C@@H](N)C(C)C)C(=O)N[C@@H](Cc1ccc(O)cc1)C(=O)N[C@@H](CC(N)=O)C(=O)N[C@@H](CCCN)C(N)=O [compound 50] (H-VDKPPYLPRPRPPRRIYN[Orn]-NH2), the “MIC E. coli BL21 A1” value ([3]; BL21, 20 h) was 8 µg/mL (≈ 3.41 µM), the “MIC M. luteus 10240” value [4] was 16 µg/mL (≈ 6.81 µM) and the “Half-life in 25% mouse serum” value [5] was 2 h.
In the case of CCCNC(=O)[C@H](CCCNC(=N)N)NC(=O)[C@H](CC(N)=O)NC(=O)[C@H](Cc1ccc(O)cc1)NC(=O)[C@@H](NC(=O)[C@H](CCCNC(=N)N)NC(=O)[C@H](CCCNC(=N)N)NC(=O)[C@@H]1CCCN1C(=O)[C@@H]1CCCN1C(=O)[C@H](CCCNC(=N)N)NC(=O)[C@@H]1CCCN1C(=O)[C@H](CCCNC(=N)N)NC(=O)[C@@H]1CCCN1C(=O)[C@H](CC(C)C)NC(=O)[C@H](Cc1ccc(O)cc1)NC(=O)[C@@H]1CCCN1C(=O)[C@@H]1CCCN1C(=O)[C@H](CCCCN)NC(=O)[C@H](CC(=O)O)NC(=O)[C@@H](N)C(C)C)[C@@H](C)CC [compound 58] (H-VDKPPYLPRPRPPRRIYNR-NHPr), the half-life [6] is reported as 1 h, the “MIC E. coli BL21 A1” value ([3]; BL21, 20 h) is reported as 4 µg/mL (≈ 1.64 µM) and the “MIC M. luteus 10240” value [4] is reported as 8 µg/mL (≈ 3.29 µM). The “Half-life in 25% mouse serum” value [5] was >2 h.
In the case of CC[C@H](C)[C@H](NC(=O)[C@H](CCCN)NC(=O)[C@H](CCCNC(=N)N)NC(=O)[C@@H]1CCCN1C(=O)[C@@H]1CCCN1C(=O)[C@H](CCCNC(=N)N)NC(=O)[C@@H]1CCCN1C(=O)[C@H](CCCNC(=N)N)NC(=O)[C@@H]1CCCN1C(=O)[C@H](CC(C)C)NC(=O)[C@H](Cc1ccc(O)cc1)NC(=O)[C@@H]1CCCN1C(=O)[C@@H]1CCCN1C(=O)[C@H](CCCCN)NC(=O)[C@H](CC(=O)O)NC(=O)[C@@H](N)C(C)C)C(=O)N[C@@H](Cc1ccc(O)cc1)C(=O)N[C@@H](CC(N)=O)C(=O)N[C@@H](CCCNC(=N)N)C(N)=O [compound 61] (H-VDKPPYLPRPRPPR[Orn]IYNR-NH2), the half-life [6] is reported as 1.08 h, the “MIC E. coli BL21 A1” value ([3]; BL21, 20 h) is reported as 8 µg/mL (≈ 3.41 µM) and the “MIC M. luteus 10240” value [4] is reported as 16 µg/mL (≈ 6.81 µM). The “Half-life in 25% mouse serum” value [5] was 1.5 h.
With CCCNC(=O)[C@H](CCCNC(=N)N)NC(=O)[C@H](CC(N)=O)NC(=O)[C@H](Cc1ccc(O)cc1)NC(=O)[C@@H](NC(=O)[C@H](CCCN)NC(=O)[C@H](CCCNC(=N)N)NC(=O)[C@@H]1CCCN1C(=O)[C@@H]1CCCN1C(=O)[C@H](CCCNC(=N)N)NC(=O)[C@@H]1CCCN1C(=O)[C@H](CCCNC(=N)N)NC(=O)[C@@H]1CCCN1C(=O)[C@H](CC(C)C)NC(=O)[C@H](Cc1ccc(O)cc1)NC(=O)[C@@H]1CCCN1C(=O)[C@@H]1CCCN1C(=O)[C@H](CCCCN)NC(=O)[C@H](CC(=O)O)NC(=O)[C@@H](N)C(C)C)[C@@H](C)CC [compound 71] (H-VDKPPYLPRPRPPR[Orn]IYNR-NHPr) the half-life [6] was 1.75 h, the “MIC M. luteus 10240” value [4] was 8 µg/mL (≈ 3.35 µM) and the “Half-life in 25% mouse serum” value [5] was >6 h.
For CC(C)C[C@H](NC(=O)[C@H](CCCN)NC(=O)[C@H](CCCNC(=N)N)NC(=O)[C@@H]1CCCN1C(=O)[C@@H]1CCCN1C(=O)[C@H](CCCNC(=N)N)NC(=O)[C@@H]1CCCN1C(=O)[C@H](CCCNC(=N)N)NC(=O)[C@@H]1CCCN1C(=O)[C@H](CC(C)C)NC(=O)[C@H](Cc1ccc(O)cc1)NC(=O)[C@@H]1CCCN1C(=O)[C@@H]1CCCN1C(=O)[C@H](CCCCN)NC(=O)[C@H](CC(=O)O)NC(=O)[C@@H](N)C(C)C)C(=O)N[C@@H](Cc1ccc(O)cc1)C(=O)N[C@@H](CC(N)=O)C(=O)N[C@@H](CCCN)C(N)=O [compound 73] (H-VDKPPYLPRPRPPR[Orn]LYN[Orn]-NH2), the half-life [1] was 1.5 h, the “MIC E. coli BL21 A1” value ([3]; BL21, 20 h) was 8 µg/mL (≈ 3.47 µM) and the “MIC M. luteus 10240” value [4] was 16 µg/mL (≈ 6.94 µM).
In the case of VDKPPYLPRPRPPRRIYNR [compound 19], the “MIC E. coli BL21 A1” value ([3]; BL21, 20 h) is reported as 32 µg/mL, the “MIC M. luteus 10240” value [4] is reported as 64 µg/mL and the “Half-life in 25% mouse serum” value [5] is reported as <0.5 h.
